The target of experiment [1] is T1, PTH1R (endogenous, Ocy454 cells) (Mus musculus, UniProt P41593).
T1 construct: effects of distinct PTH1R ligands on endogenous receptors in Ocy454 cells; endogenous in cells; host or cells: Ocy454 cells (murine osteocyte-like line, subclone 6-9)
T1 sequence (P41593 27-591): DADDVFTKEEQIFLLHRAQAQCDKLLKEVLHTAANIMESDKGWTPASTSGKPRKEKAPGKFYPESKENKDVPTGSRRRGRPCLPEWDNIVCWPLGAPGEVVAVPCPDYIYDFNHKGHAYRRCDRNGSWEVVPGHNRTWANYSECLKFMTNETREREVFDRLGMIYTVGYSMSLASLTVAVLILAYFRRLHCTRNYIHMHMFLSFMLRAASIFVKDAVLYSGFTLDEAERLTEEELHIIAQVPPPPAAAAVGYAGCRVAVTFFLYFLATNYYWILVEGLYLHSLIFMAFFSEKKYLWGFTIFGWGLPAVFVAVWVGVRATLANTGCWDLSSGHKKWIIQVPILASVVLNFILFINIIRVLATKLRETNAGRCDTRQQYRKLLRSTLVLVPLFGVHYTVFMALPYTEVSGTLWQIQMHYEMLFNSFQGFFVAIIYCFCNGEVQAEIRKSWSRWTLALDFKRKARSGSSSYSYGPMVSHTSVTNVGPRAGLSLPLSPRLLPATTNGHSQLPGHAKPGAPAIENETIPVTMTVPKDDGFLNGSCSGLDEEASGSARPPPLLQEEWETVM
As to the kind of experiment: intracellular cAMP in Ocy454 cells. Format: cell-based, murine. The conditions noted are these: IBMX (2mM), 30 min, room temperature, radioimmunoassay, repeated three times, Fig 3A, read-out: cAMP generation EC50. The method, then: Confluent Ocy454 cells in 96‐well plates were treated with a abaloparatide or a PTH analog at varying concentrations in a buffer of Hanks balanced salts solution (HBSS) containing 0.1% BSA and 3‐isobutyl‐1‐methylxanthine (IBMX) (2mM) for 30 min at room temperature. The buffer was then removed and the cells were lysed by placing the plate on a bed of powdered dry ice and adding 50 μL of 50mM HCl. After freezing and thawing, the lysates were diluted in water and then assessed for cAMP content by radioimmunoassay.
First, we assessed the effects of different PTH analogs on cAMP generation. For this, cells were treated with different concentrations of peptides in the presence of IBMX for 30 min at room temperature, followed by radioimmunoassay for cAMP.

A further experiment concerns hPTH1R. As to the kind of experiment: intracellular calcium (Fura2-AM) in HEK293/hPTH1R/glosensor (GP-2.3) cells. The experiment is classed as cell-based, human. The conditions noted are these: 100nM; HEK293 cells stably expressing hPTH1R (GP-2.3); Fura2-AM ratiometric fluorescence 340/380 nm; 150 s after ligand addition; repeated two times. The method, then:
Signaling via the iCa^++ pathway was assessed in stably transfected HEK‐HEK293/hPTH1R/glosensor (GP‐2.3) cells using the calcium‐sensitive fluorophore Fura2‐AM (Invitrogen, Life Tech. Grand Island, NY, USA).^( ^32 ^) Confluent cells in a black, 96‐well plate were preloaded with Fura2‐AM (5μM) for 45 min and then unloaded in buffer for 30 min. The plate was then processed using a Perkin Elmer Envision plate reader (Perkin Elmer, Waltham, MA, USA) to monitor fluorescence emission at a wavelength (λem) of 515 nm, upon sequential excitation at wavelengths (λex) of 340 nm and 380 nm. Data were recorded at 2‐s intervals for 10 s prior to, and for 150 s after ligand addition. The data at each time point were calculated as the ratio of the fluorescence signal obtained with excitation at 340 nm to that obtained with excitation at 380 nm.
(§1) First, we assessed the ability of distinct PTH1R peptide ligands (Fig. 1A ) to induce Gαq/PKC‐dependent increases in intracellular calcium in HEK293 cells stably expressing hPTH1R (GP‐2.3 cells). For this, cells were preloaded with the calcium indicator dye Fura2‐AM, and then treated with different PTH ligands at a concentration of 100nM. Intracellular calcium fluxes were measured by ratiometric fluorescence (excitation = 340 nm and 380 nm, emission = […]) over time.

For experiment [2], the system named is Gαq/phospholipase signaling. The note with it: cited from earlier work. The method, then:
as §1

In another experiment the test system is ratPTH1R. As to the kind of experiment: internalization of TMR-labeled ligand-PTH1R complexes in GR-35 cells. Format: cell-based, rat. The conditions noted are these: TMR-labeled ligands (TMR at Lys13), 15 min, 21°C, HEK293 ratPTH1R/glosensor GR-35 cells, epifluorescent microscopy; 100nM (methods) or 10nM (results); repeated two times. The method, then:
Internalization of ligand‐PTH1R complexes was assessed by fluorescent microscopy in stably transfected HEK293/ratPTH1R/glosensor (GR‐35) cells. The cells were cultured on glass coverslips in 24‐well plates to ~75% of confluency, and then treated with a tetramethylrhodamine (TMR)‐labeled PTH analog (100nM, TMR attached to Lys13) in HBSS containing 0.1% BSA (HB buffer) for 15 min at 21°C. The cells were then rinsed thrice with HB buffer, fixed with 4% formalin for 5 min, mounted with vector‐shield containing 4,6‐diamidino‐2‐phenylindole (DAPI) on a glass microscope slide, and viewed and digitally imaged using a Nikon epifluorescent microscope (Nikon, Tokyo, Japan) equipped with a charge‐coupled device (CCD) camera configured with SPOT imaging software (SPOT Imaging, Sterling Heights, MI, USA).
Next, we asked whether PTH analogs might have different effects on PTH1R activation‐dependent internalization. For this, HEK293 cells stably expressing a rat PTH1R cDNA (GR‐35 cells) were treated with tetramethyl‐rhodamine‐labeled versions of hPTH (1‐34), PTHrP, and abaloparatide (the TMR fluorophore is attached at the K13 position of each peptide). Cells were treated for 15 min at room temperature (21°C) at peptide doses of 10nM. After excess unbound peptide was washed away, cells were examined by epifluorescent microscopy.

Where no end group is shown, it is not given here. TMR = tetramethyl-rhodamine

As for `CC[C@H](C)[C@H](NC(=O)[C@H](CO)NC(=O)[C@H](CCCCN)NC(=O)CNC(=O)[C@H](CCCCN)NC(=O)[C@H](CC(=O)O)NC(=O)[C@H](Cc1cnc[nH]1)NC(=O)[C@H](CC(C)C)NC(=O)[C@H](CC(C)C)NC(=O)[C@H](CCC(N)=O)NC(=O)[C@H](Cc1cnc[nH]1)NC(=O)[C@H](CCC(=O)O)NC(=O)[C@H](CO)NC(=O)[C@@H](NC(=O)[C@H](C)N)C(C)C)C(=O)N[C@@H](CCC(N)=O)C(=O)N[C@@H](CC(=O)O)C(=O)N[C@@H](CC(C)C)C(=O)N[C@@H](CCCNC(=N)N)C(=O)N[C@@H](CCCNC(=N)N)C(=O)N[C@@H](CCCNC(=N)N)C(=O)N[C@@H](CCC(=O)O)C(=O)N[C@@H](CC(C)C)C(=O)N[C@@H](CC(C)C)C(=O)N[C@@H](CCC(=O)O)C(=O)N[C@@H](CCCCN)C(=O)N[C@@H](CC(C)C)C(=O)N[C@@H](CC(C)C)C(=O)NC(C)(C)C(=O)N[C@@H](CCCCN)C(=O)N[C@@H](CC(C)C)C(=O)N[C@@H](Cc1cnc[nH]1)C(=O)N[C@H](C(=O)N[C@@H](C)C(N)=O)[C@@H](C)O` [abaloparatide], in experiment [1], the EC50 is 0.589 nM. On the same count and under the same terms, the result for “AVAEIQLMHQRAKWIQDARRRAFLHKLIAEIHTAEI [LA‐PTH]” reads 0.562 nM.

In the case of “Trp1‐PTH (1‐34): a PTH analog defective at activating Gαq/phospholipase signaling (WVSEIQLMHNLGKHLNSMERVEWLRKKLQDVHNF; Parathyroid hormone; UniProt P01270 32-65, looked up, variant S1W)”, the intracellular calcium release result with hPTH1R is reported as “does not stimulate intracellular calcium”. The “activation of Gαq/phospholipase signaling” value in experiment [2] is recorded as “defective at activating Gαq/phospholipase signaling”. Regarding “^TMRPTHc35 (1‐35): Tetramethyl‐rhodamine (TMR)‐labeled version of PTH, TMR attached to Lys13 (SVSEIQLMHNLGK(TMR)HLNSMERVEWLRKKLQDVHNFV; UniProt P01270 32-66, looked up, fragment)”, the ligand-PTH1R internalization entry in the experiment on ratPTH1R is on record as “induced ligand‐PTH1R internalization”.

Take “^TMRPTHrP (1‐36): Tetramethyl‐rhodamine (TMR)‐labeled version of PTHrP, TMR attached to Lys13”: the ligand-PTH1R internalization entry in the experiment on ratPTH1R was “induced ligand‐PTH1R internalization”.

The values above are taken from paper PMC8101618, “Comparable Initial Engagement of Intracellular Signaling Pathways by Parathyroid Hormone Receptor Ligands Teriparatide, Abaloparatide, and Long‐Acting PTH” (JBMR Plus, 2021).
